Experimental data taken from the PolyMetriX glass transition set.

Row | Compound | glass transition temperature [°C]
1 | *CC(*)c1ccc(Cl)c(C)c1 (repeat unit) | 114.00
2 | *CCC[Si](C)(C)O[Si](C)(C)CCCN1C(=O)c2ccc(C(=O)c3ccc4c(c3)C(=O)N(*)C4=O)cc2C1=O (repeat unit) | 68.00
3 | *Oc1ccc(CC(NC(=O)CCc2ccc(OC(=O)CCCC(*)=O)cc2)C(=O)OCC(C)C)cc1 (repeat unit) | 62.00
4 | *CC(*)(C)C(=O)OCCCCCCCCCCOc1ccc(C(=O)Oc2ccc(C(=O)/C=C/c3c(C)c4ccccc4n3CCCC)cc2)cc1 (repeat unit) | 57.00
5 | *CCNC(=O)c1ccc(O*)cc1 (repeat unit) | 150.00
6 | */C=C/c1ccc2c(c1)C(CCCCCC)(CCCCCC)c1cc(/C=C/c3nc(*)c(C#N)c(/C=C/c4ccc(N(c5ccccc5)c5ccccc5)cc4)c3C#N)ccc1-2 (repeat unit) | 178.00
7 | *c1ccc(OCCOCCOCCOc2cccc(N3C(=O)c4ccc(Oc5ccc6c(c5)C(=O)N(*)C6=O)cc4C3=O)c2)cc1 (repeat unit) | 107.00
8 | */C(C)=C(/*)[Si](C)(C)C (repeat unit) | 75.00
9 | */C=C/C1CC(*)C2C(=O)N(CCCC)C(=O)C12 (repeat unit) | 131.00
10 | *CCCCCCNC(=O)CCC(C)CC(=O)N* (repeat unit) | 17.00
11 | *c1ccc(Oc2ccc(C(=O)c3ccc(C(=O)c4ccc(Oc5ccc(-c6nc7ccccc7n6-c6ccc(-n7c(*)nc8ccccc87)cc6)cc5)cc4)cc3)cc2)cc1 (repeat unit) | 238.00
12 | *CC(*)(C)C(=O)OCCCCOc1ccc(C(=O)Oc2ccc(OC)cc2)cc1 (repeat unit) | 45.00
13 | *c1ccc(Oc2ccc(C(=O)c3cccc(C(=O)c4ccc(Oc5ccc(-c6nc7ccccc7n6-c6ccc(-n7c(*)nc8ccccc87)cc6)cc5)cc4)c3)cc2)cc1 (repeat unit) | 219.00
14 | *CC/C(C)=C(/*)C (repeat unit) | 4.00
15 | *c1ccc(NC(=O)Nc2ccc(NC(=O)Nc3ccc(-c4nc(C#N)c(C#N)nc4*)cc3)cc2)cc1 (repeat unit) | 248.70
16 | *CC(*)c1ccc(C(=O)N2CCCCC2)cc1 (repeat unit) | 114.00
17 | *CC#CC#CCOc1ccc(C(=O)OCCN(CCOC(=O)c2ccc(O*)cc2)c2ccc(/N=N/c3ccc([N+](=O)[O-])cc3)cc2)cc1 (repeat unit) | 100.00

Row | Compound | glass transition temperature [°C]
18 | *CC(COc1ccc(C(C)(C)c2ccc(O*)cc2)cc1)OC(=O)c1ccccc1 (repeat unit) | 65.00
19 | *c1ccc(Cc2ccc(-n3c(=O)c4cc5c(=O)n(*)c(=O)c5cc4c3=O)c(C(C)(C)C)c2)cc1C(C)(C)C (repeat unit) | 217.00
20 | *CC(*)(F)C(=O)OCC(F)(F)C(F)F (repeat unit) | 90.50
21 | *CC(C)(C)COC(=O)c1ccc(/C=C/c2ccc(C(=O)O*)cc2)cc1 (repeat unit) | 80.00
22 | *c1ccc2c(c1)C(=O)N(c1ccc(C(c3ccc(C)c(N4C(=O)c5ccc(C(*)(C(F)(F)F)C(F)(F)F)cc5C4=O)c3)(C(F)(F)F)C(F)(F)F)cc1C)C2=O (repeat unit) | 266.00
23 | */C=C/C1CC(*)C(C(=O)OCCCCCCOc2ccc(-c3ccc(C#N)cc3)cc2)C1C(=O)OCCCCCCOc1ccc(-c2ccc(C#N)cc2)cc1 (repeat unit) | 55.80
24 | *c1ccc(Sc2ccc(Sc3ccc(Sc4ccc(S(*)(=O)=O)cc4S(=O)(=O)O)cc3)cc2)c(S(=O)(=O)O)c1 (repeat unit) | 202.00
25 | */C=C/C1CC(*)C(C(=O)OCCCCCCCCCCCOc2ccc(-c3ccc(C#N)cc3)cc2)C1C(=O)OCCCCCCCCCCCOc1ccc(-c2ccc(C#N)cc2)cc1 (repeat unit) | 23.10
26 | *c1ccc(-c2ccc(-c3ccc(-c4ccc([Si](CCCC)(CCCC)[Si](*)(CCCC)CCCC)s4)s3)s2)s1 (repeat unit) | -1.00
27 | *CC(*)c1ccc(C)nc1 (repeat unit) | 136.00
28 | *c1ccc(Oc2ccc(N3C(=O)c4cccc(Oc5c(Oc6cccc7c6C(=O)N(*)C7=O)cc(C(C)(C)C)cc5C(C)(C)C)c4C3=O)cc2)cc1 (repeat unit) | 238.00
29 | *CC(*)c1cc[n+](CCCCCCCC)cc1 (repeat unit) | 206.20
30 | *Nc1cccc(NC(=C(C#N)C#N)c2cccc(C(*)=C(C#N)C#N)c2)c1 (repeat unit) | 278.00
31 | *C(=O)c1ccc(Oc2c(C)cc(-c3cc(C)c(Oc4ccc(C(=O)c5ccc6nc(*)ccc6c5)cc4)c(C)c3)cc2C)cc1 (repeat unit) | 180.00
32 | *CC(*)(C)C(=O)OCC(=O)N1CCOCC1 (repeat unit) | 128.00
33 | *O[Si](*)(C)CCCOc1ccc(-c2ccc(C#N)cc2)cc1 (repeat unit) | 38.00
34 | *C(=O)Oc1ccc2ccc(OC(=O)c3ccc4c(c3)C(=O)N(c3ccc(Oc5ccc(N6C(=O)c7ccc(*)cc7C6=O)cc5)cc3)C4=O)cc2c1 (repeat unit) | 246.00
